Holding throughout (experiment): growth of human tumour cells (NCI), 48 h
Assay [1] concerns SF-539 CNS.
For assay [2], the system named is OVCAR-5 ovarian.
Assay [3] has as its system 786-0 renal.
In assay [4] the test system is HOP-92 NSCLC.
The test system of assay [5] is SK-MEL-2 melanoma.
For assay [6], the system named is LOX IMVI melanoma.
Assay [7] relates to OVCAR-3 ovarian.
The test system of assay [8] is MALME-3M melanoma.
Assay [9] concerns IGROV1 ovarian.
For assay [10], the system named is HL-60(TB) leukemia.
Assay [11] concerns SK-MEL-28 melanoma.
For assay [12], the system named is NCI-H226 lung.
In assay [13] the test system is HOP-62 NSCLC.
Assay [14] deals with SW-620 colon.
Assay [15] deals with OVCAR-8 ovarian.
Assay [16] relates to MOLT-4 leukemia.
Assay [17] concerns K-562 leukemia.
The subject of assay [18] is NCI/ADR-RES ovarian.

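Results reflect a 48-hour exposure of cells in 96-well plates to compound at five concentrations. TGI is the concentration that stops growth completely.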 Some results are limits rather than exact numbers.

In the case of `CC(C)(C)[C@H]1CO[C@]2(c3ccccc3)[C@@H]3C[C@@H]3C(=O)N12`, the TGI in [1], in assay [2], in assay [3], in assay [4], in assay [5] and in [6] was over 100 µM each time. The TGI in assay [7], in assay [8], in assay [9], in assay [10], in assay [11] and in assay [12] was over 100 µM in each case. The TGI in assay [13], in assay [14] and in assay [15] was over 100 µM throughout.

On to `CCN(CC)C(=S)SCC(=O)Nc1nc2c(s1)CCCC2`, for which the TGI in assay [1], in assay [2], in assay [3], in assay [4], in assay [5] and in assay [6] was over 100 µM each time. The TGI in [8] was over 100 µM; in assay [9] it was over 100 µM; in [10], 47.6 µM; in assay [11], over 100 µM; in assay [16], over 100 µM; in assay [12], over 100 µM. In addition, the TGI in assay [13], in [14] and in assay [15] was over 100 µM throughout.

Turning to `CSc1ccc(NC(=O)C2c3[nH]c4ccccc4c3C3CCC(C(C)(C)C)CC3C2C(=O)O)cc1` (stereo not given), the TGI is 37.7 µM in [1]; 32.2 µM in assay [3]; 53 µM in assay [4]; over 100 µM in [17]; 46.8 µM in assay [8]; 51.8 µM in assay [9]. In addition, the TGI in assay [10] is 23 µM; in assay [11] it was 60.5 µM; in assay [16], 31.4 µM; in assay [12], 33.1 µM; in assay [13], 32.1 µM; in assay [14], 32.1 µM. Besides, the TGI in assay [15] was found to be 28.8 µM.

For the compound `C=CCCCN1CCCC(C)C1=S` (stereo not given), the TGI in [1], in [2], in assay [3], in assay [4], in assay [5] and in assay [6] was over 100 µM each time. The TGI in [17], in assay [7], in assay [8], in assay [9], in assay [10] and in assay [11] was over 100 µM in each case. Besides, the TGI in assay [16], in assay [12], in [13], in assay [14] and in assay [15] was over 100 µM throughout.

`C[n+]1c2ccccc2c(CNCC(=O)O)c2ccccc21`: the TGI was determined as 5.19 µM in [1]; 28.5 µM in assay [2]; 2.58 µM in assay [3]; 10.4 µM in [4]; 12.6 µM in assay [5]; 11.1 µM in assay [17]. Also, the TGI is 6.2 µM in assay [7]; 28.6 µM in assay [8]; 22.6 µM in [9]; 0.811 µM in [16]; 15.5 µM in [12]; 19.1 µM in assay [13]. Moreover, the TGI in assay [14] came out at 2.24 µM; in assay [15], 7.84 µM.

As for `CC1=NN2C(c3ccc([N+](=O)[O-])cc3)=CSC2=NC(C)(C)C1`, the TGI in assay [1], in assay [2], in assay [3], in assay [4], in assay [5] and in assay [6] was over 100 µM throughout. In addition, the TGI in assay [17], in [7], in [8], in assay [9], in assay [10] and in assay [11] was over 100 µM in each case. For the same compound, the TGI in [16], in [12], in assay [13], in assay [14] and in assay [15] was over 100 µM throughout.

Take `ClCC[N-]CC[N-]CCCl.ClCC[N-]CC[N-]CCCl.[O-][Cl+3]([O-])([O-])O.[Zn+2]`: the TGI is over 67.8 µM in assay [1]; 46.6 µM in assay [2]; 39.1 µM in assay [3]; over 57.3 µM in [4]; 41.4 µM in [5]; 57.2 µM in assay [6]. In addition, the TGI in assay [17] was 68.7 µM; in assay [7], 32.1 µM; in assay [8] it was 37.4 µM; in assay [9], over 62.3 µM; in assay [10] it was over 100 µM; in assay [11] it was over 62.4 µM. Also, the TGI was over 100 µM in [16]; over 100 µM in assay [12]; over 100 µM in assay [13]; 47.2 µM in [14]; 45.4 µM in [15].

With `Cc1c2ccncc2c(C)c2c1[nH]c1ccc(Oc3ccccc3)cc12`, the TGI in assay [1] amounted to 3.13 µM; in assay [2] it was 3.94 µM; in [3], 3.24 µM; in assay [4], 13.9 µM; in assay [6] it was 4 µM; in assay [17], 4.01 µM. Besides, the TGI was 7.75 µM in assay [7]; 3.58 µM in assay [8]; 42.4 µM in assay [9]; 5.88 µM in [10]; 9.67 µM in assay [11]; 6.44 µM in assay [16]. For the same compound, the TGI in assay [12] is 37.6 µM; in assay [13], 4.42 µM; in assay [14], over 100 µM; in assay [15], 3.48 µM.

For the compound `COC(=O)CC(C(C(=O)OC)C(=O)OC)N1C(=O)OC(c2ccccc2)C1c1ccccc1` (stereo not given), the TGI in assay [1], in assay [2], in assay [3], in [4], in assay [5] and in assay [6] was over 100 µM each time. The TGI in assay [17], in [7], in [8], in assay [9], in assay [10] and in assay [11] was over 100 µM in each case. The TGI is over 100 µM in [16]; over 100 µM in [12]; over 100 µM in assay [13]; 74.3 µM in assay [14]; over 100 µM in assay [15].

`COC(=O)c1c(-c2cc(OC)c(OC)c(OC)c2)oc2ccccc2c1=O`: the TGI in assay [1], in [2], in [3], in [4], in assay [5] and in assay [6] was over 100 µM throughout. The TGI in assay [17], in assay [7], in assay [8], in assay [9], in assay [10] and in assay [16] was over 100 µM each time. The TGI in [12], in assay [13], in [14] and in assay [15] was over 100 µM each time.

In the case of `Nc1nc(N)c2ncn(CCOC(c3ccccc3)P(=O)(O)O)c2n1` (stereo not given), the TGI in [1], in assay [2], in assay [3], in assay [5], in assay [6] and in [7] was over 100 µM throughout. The TGI in [8], in assay [9], in assay [10], in assay [11], in [16] and in assay [12] was over 100 µM each time. Moreover, the TGI in [14] and in [15] was over 100 µM throughout.

Regarding `N#Cc1ccc(Oc2ccccc2)cc1C#N`, the TGI was over 100 µM in [1]; over 100 µM in assay [2]; over 100 µM in assay [3]; over 100 µM in assay [4]; over 100 µM in [5]; 38.7 µM in assay [6]. Moreover, the TGI in assay [17], in assay [7], in assay [8], in assay [9], in assay [10] and in assay [11] was over 100 µM in each case. For the same compound, the TGI in assay [16], in assay [12], in [13] and in assay [15] was over 100 µM in each case.

Take `O=C(O)CCCNc1ncc2c(n1)-c1ccccc1OC2`: the TGI in assay [1], in assay [2], in [3], in assay [4], in [18] and in assay [5] was over 100 µM in each case. The TGI in [6], in assay [17], in assay [7], in assay [8], in [9] and in assay [10] was over 100 µM in each case. The TGI in assay [11], in [16], in assay [12], in [13], in assay [14] and in assay [15] was over 100 µM in each case.

With `CC(C)OC/N=C(/N)NC#N`, the TGI was over 100 µM in assay [1]; over 100 µM in assay [2]; over 100 µM in assay [3]; over 100 µM in assay [4]; over 100 µM in assay [5]; 43.7 µM in assay [6]. Moreover, the TGI in assay [17], in [7], in assay [8], in assay [9], in [10] and in assay [11] was over 100 µM in each case. The TGI was over 100 µM in assay [16]; over 100 µM in assay [12]; over 100 µM in assay [13]; 45.2 µM in assay [14]; over 100 µM in [15].

As to `COCN(C)c1nc(N(C)C)nc(N(C)C)n1`, the TGI in [1], in assay [2], in assay [3], in [4], in assay [5] and in assay [6] was over 100 µM each time. Further, the TGI in assay [17], in assay [7], in assay [8], in [9], in assay [10] and in assay [11] was over 100 µM in each case. The TGI in [16], in [13], in assay [14] and in assay [15] was over 100 µM throughout.

As for `COc1ccc(OC)c(NC(=O)C(=O)CC(=O)c2sc(-n3nc(-c4ccccc4)cc3-c3ccccc3)nc2C)c1`, the TGI in [1], in [2], in assay [3], in [5], in assay [6] and in [17] was over 100 µM throughout. Also, the TGI in [7], in assay [8], in [9], in assay [10], in [16] and in assay [12] was over 100 µM each time. The TGI in assay [13], in assay [14] and in assay [15] was over 100 µM throughout.

Turning to `C[C@]12CC[C@H](O)CC1=CC[C@@H]1C2CC[C@]2(C)C(=O)NC(=O)CC12` (stereo not given in full), the TGI in assay [1], in [2], in assay [3], in [4], in [5] and in [6] was over 100 µM throughout. In addition, the TGI in assay [17] was 92.1 µM; in [7], over 100 µM; in assay [8] it was over 100 µM; in assay [9] it was over 100 µM; in assay [10], over 100 µM; in assay [11] it was over 100 µM. Besides, the TGI in assay [16], in assay [12], in assay [13], in assay [14] and in assay [15] was over 100 µM throughout.

The values above are taken from PubChem BioAssay (NCI).
